From PMC6642016 (Nature chemical biology, 2019) come the findings set out here.

Holding throughout (format): biochemical
The target in one test is T1, PtmJ (Streptomyces pactum, UniProt A8R0J5).
T1 sequence (A8R0J5 1-318): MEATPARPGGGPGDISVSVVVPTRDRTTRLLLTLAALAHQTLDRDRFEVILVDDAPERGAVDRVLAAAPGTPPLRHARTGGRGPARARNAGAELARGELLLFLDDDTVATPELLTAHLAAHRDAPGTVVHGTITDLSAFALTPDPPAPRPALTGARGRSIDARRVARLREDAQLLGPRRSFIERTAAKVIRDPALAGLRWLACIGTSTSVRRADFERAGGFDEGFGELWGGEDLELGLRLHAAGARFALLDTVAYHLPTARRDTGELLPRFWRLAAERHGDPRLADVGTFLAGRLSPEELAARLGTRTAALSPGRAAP
Put plainly: mass spectrometry of GlcNAc-3ABA-SNAC. The conditions noted are these: donor UDP-GlcNAc.

For a further test, the target named is T2, PtmS (Streptomyces pactum, UniProt B7TWM6).
T2 sequence (B7TWM6 1-505): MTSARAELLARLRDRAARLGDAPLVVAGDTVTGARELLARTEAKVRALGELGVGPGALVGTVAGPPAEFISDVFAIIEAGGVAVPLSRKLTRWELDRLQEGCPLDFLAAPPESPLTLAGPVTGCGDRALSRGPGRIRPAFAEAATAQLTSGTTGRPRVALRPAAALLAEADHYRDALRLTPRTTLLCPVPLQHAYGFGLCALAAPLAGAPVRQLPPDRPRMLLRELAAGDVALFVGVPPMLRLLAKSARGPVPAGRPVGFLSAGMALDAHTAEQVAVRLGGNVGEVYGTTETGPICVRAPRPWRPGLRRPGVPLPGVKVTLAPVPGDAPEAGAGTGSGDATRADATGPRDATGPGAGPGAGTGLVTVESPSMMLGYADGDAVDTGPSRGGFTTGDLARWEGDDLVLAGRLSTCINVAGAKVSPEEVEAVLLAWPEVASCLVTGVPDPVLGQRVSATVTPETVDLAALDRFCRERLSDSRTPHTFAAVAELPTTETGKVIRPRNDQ
Put plainly: HPLC and LC-MS of 3ABA-AMP. The settings on record: MgCl2 5 mM, Tris-HCl pH 8.0, 30 °C.

The target in a further test is T3, PtmI (Streptomyces pactum, UniProt A8R0J4).
T3 sequence (A8R0J4 1-94): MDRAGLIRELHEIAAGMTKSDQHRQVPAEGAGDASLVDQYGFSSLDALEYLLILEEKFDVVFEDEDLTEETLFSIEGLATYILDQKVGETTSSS
The experiment in a line: LC-MS of intact protein. The settings on record: covalent; holo-PtmI 200 μM, malonyl-CoA 8 mM, Tris-HCl pH 8.0, 30 °C.

As to `CC(=O)NCCSC(=O)c1cccc(N)c1` [3ABA-SNAC], at PtmJ, the “mass spectrometry of GlcNAc-3ABA-SNAC” value is recorded as “PtmJ reaction mixture showing that 3ABA-SNAC can be glycosylated to give GlcNAc-3ABA-SNAC”.
`Nc1ncnc2c1ncn2[C@@H]1O[C@H](COP(=O)(O)OP(=O)(O)OP(=O)(O)O)[C@@H](O)[C@H]1O` [ATP]: the “HPLC and LC-MS of 3ABA-AMP; coupled pyrophosphate assay” value at PtmS (3ABA 2 mM) is “incubated with 3ABA in the presence of ATP and MgCl2 to give 3-aminobenzoyl-AMP (3ABA-AMP)”.
`Nc1cccc(C(=O)O)c1` [compound 3, 3-aminobenzoic acid]: on PtmS (ATP 5 mM), the “HPLC and LC-MS of 3ABA-AMP; coupled pyrophosphate assay” value is “the purified protein was incubated with 3ABA in the presence of ATP and MgCl2”.
Consider `CC(C)(COP(=O)(O)OP(=O)(O)OC[C@H]1O[C@@H](n2cnc3c(N)ncnc32)[C@H](O)[C@@H]1OP(=O)(O)O)[C@@H](O)C(=O)NCCC(=O)NCCSC(=O)CC(=O)O` [malonyl-CoA], for which the “LC-MS of intact protein (malonyl-PtmI, self-acylation)” value at PtmI is listed as “Incubation of the holo-PtmI with malonyl-CoA (Figure 3a) also led to the formation of malonyl-PtmI”.
